Assay type in all cases: functional
In assay [1] the test system is Mycobacterium tuberculosis. Put plainly: Antitubercular activity against multidrug resistant Mycobacterium tuberculosis clinical isolate 11 by resazurin microtitre assay. For orientation: Alamar Blue is a resazurin reagent that responds to reducing activity.
The subject of assay [2] is Mycobacterium tuberculosis. Briefly: Antitubercular activity against multidrug resistant Mycobacterium tuberculosis clinical isolate 7 by resazurin microtitre assay.
Assay [3] concerns Mycobacterium tuberculosis. Put plainly: Antitubercular activity against multidrug resistant Mycobacterium tuberculosis clinical isolate 2 by resazurin microtitre assay.
The test system of assay [4] is Mycobacterium tuberculosis. Put plainly: Antitubercular activity against extensively drug resistant Mycobacterium tuberculosis clinical isolate 7 by resazurin microtitre assay.
Assay [5] concerns Mycobacterium tuberculosis. Briefly: Antimycobacterial activity against isoniazid resistant Mycobacterium tuberculosis clinical isolate incubated for 7 days by resazurin microtitre assay. As to conditions: 168 h, time 7 day.
Assay [6] deals with Mycobacterium tuberculosis. Briefly: Antitubercular activity against multidrug resistant Mycobacterium tuberculosis clinical isolate 3 by resazurin microtitre assay.
For assay [7], the system named is Mycobacterium tuberculosis. Briefly: Antitubercular activity against extensively drug resistant Mycobacterium tuberculosis clinical isolate 11 by resazurin microtitre assay.
Assay [8] deals with Mycobacterium tuberculosis. Put plainly: Antitubercular activity against extensively drug resistant Mycobacterium tuberculosis clinical isolate 1 by resazurin microtitre assay.
The subject of assay [9] is Mycobacterium tuberculosis. Briefly: Antitubercular activity against extensively drug resistant Mycobacterium tuberculosis KMRC 0 0203-0 0197 by resazurin microtitre assay.
Assay [10] has as its system Mycobacterium tuberculosis. Put plainly: Antitubercular activity against extensively drug resistant Mycobacterium tuberculosis clinical isolate 9 by resazurin microtitre assay.
The subject of assay [11] is Mycobacterium tuberculosis. Briefly: Antitubercular activity against extensively drug resistant Mycobacterium tuberculosis clinical isolate 10 by resazurin microtitre assay.
The test system of assay [12] is Mycobacterium tuberculosis. Briefly: Antitubercular activity against multidrug resistant Mycobacterium tuberculosis clinical isolate 8 by resazurin microtitre assay.
Assay [13] concerns Mycobacterium tuberculosis. Briefly: Antitubercular activity against extensively drug resistant Mycobacterium tuberculosis clinical isolate 8 by resazurin microtitre assay.
Assay [14] deals with Mycobacterium tuberculosis. Put plainly: Antitubercular activity against multidrug resistant Mycobacterium tuberculosis clinical isolate 10 by resazurin microtitre assay.
Assay [15] relates to Mycobacterium tuberculosis. Put plainly: Antitubercular activity against extensively drug resistant Mycobacterium tuberculosis clinical isolate 6 by resazurin microtitre assay.
Assay [16] has as its system Mycobacterium tuberculosis. Put plainly: Antitubercular activity against multidrug resistant Mycobacterium tuberculosis clinical isolate 9 by resazurin microtitre assay.
Assay [17] concerns Mycobacterium tuberculosis. Briefly: Antitubercular activity against multidrug resistant Mycobacterium tuberculosis clinical isolate 5 by resazurin microtitre assay.
Assay [18] relates to Mycobacterium tuberculosis. Briefly: Antitubercular activity against extensively drug resistant Mycobacterium tuberculosis clinical isolate 5 by resazurin microtitre assay.
The test system of assay [19] is Mycobacterium tuberculosis. Put plainly: Antitubercular activity against multidrug resistant Mycobacterium tuberculosis clinical isolate 1 by resazurin microtitre assay.
For assay [20], the system named is Mycobacterium tuberculosis. Put plainly: Antimycobacterial activity against isoniazid, rifampicin, ethambutol, pyrazinamide, capreomycin, and ethionamide resistant Mycobacterium tuberculosis clinical isolate incubated for 7 days by resazurin microtitre assay. As to conditions: 168 h, time 7 day.
Assay [21] deals with Mycobacterium tuberculosis. Put plainly: Antitubercular activity against extensively drug resistant Mycobacterium tuberculosis clinical isolate 4 by resazurin microtitre assay.
Assay [22] concerns Mycobacterium tuberculosis. Briefly: Antitubercular activity against multidrug resistant Mycobacterium tuberculosis clinical isolate 6 by resazurin microtitre assay.
Assay [23] concerns Mycobacterium tuberculosis. Put plainly: Antimycobacterial activity against isoniazid, rifampicin, ethambutol, pyrazinamide, streptomycin, capreomycin, amikacin, kanamycin, ofloxacin, and ethionamide resistant Mycobacterium tuberculosis clinical isolate incubated for 7 days by resazurin microtitre assay. As to conditions: 168 h, time 7 day.
Assay [24] has as its system Mycobacterium tuberculosis. Put plainly: Antitubercular activity against extensively drug resistant Mycobacterium tuberculosis clinical isolate 2 by resazurin microtitre assay.
The subject of assay [25] is Mycobacterium tuberculosis. Put plainly: Antitubercular activity against multidrug resistant Mycobacterium tuberculosis clinical isolate 4 by resazurin microtitre assay.
The subject of assay [26] is Mycobacterium tuberculosis. Briefly: Antitubercular activity against extensively drug resistant Mycobacterium tuberculosis clinical isolate 3 by resazurin microtitre assay.
The subject of assay [27] is Mycobacterium tuberculosis. Put plainly: Antimycobacterial activity against isoniazid and ethionamide resistant Mycobacterium tuberculosis clinical isolate B.
Assay [28] has as its system Mycobacterium tuberculosis. Put plainly: Antimycobacterial activity against isoniazid, streptomycin, and rifampicin resistant Mycobacterium tuberculosis clinical isolate C.
Assay [29] deals with Mycobacterium tuberculosis. Put plainly: Antimycobacterial activity against isoniazid, streptomycin, rifampicin, ethambutol and ethionamide resistant Mycobacterium tuberculosis clinical isolate G.
Assay [30] relates to Mycobacterium tuberculosis. Put plainly: Antimycobacterial activity against isoniazid and ethionamide resistant Mycobacterium tuberculosis clinical isolate E.
Assay [31] concerns Mycobacterium tuberculosis. Put plainly: Antimycobacterial activity against isoniazid, streptomycin, ethambutol and ethionamide resistant Mycobacterium tuberculosis clinical isolate A.
The subject of assay [32] is Mycobacterium tuberculosis. Put plainly: Antimycobacterial activity against isoniazid, streptomycin and ethionamide resistant Mycobacterium tuberculosis clinical isolate F.
Assay [33] concerns Mycobacterium tuberculosis. Briefly: Antimycobacterial activity against isoniazid, streptomycin, rifampicin, ethambutol, ethionamide and ofloxacin resistant Mycobacterium tuberculosis clinical isolate H.
The test system of assay [34] is Mycobacterium tuberculosis. Put plainly: Antimycobacterial activity against multidrug-resistant Mycobacterium tuberculosis H37Rv assessed as inhibition of bacterial growth by alamar blue assay.
The subject of assay [35] is Mycobacterium tuberculosis. Put plainly: Antimycobacterial activity against extensively-resistant Mycobacterium tuberculosis H37Rv assessed as inhibition of bacterial growth by alamar blue assay.

≈ marks a conversion by molar mass, not a printed value.

In the case of `CO[C@H]1/C=C/O[C@@]2(C)Oc3c(C)c(O)c4c(O)c(c(/C=N/N5CCN(C)CC5)c(O)c4c3C2=O)NC(=O)/C(C)=C\C=C\[C@H](C)[C@H](O)[C@@H](C)[C@@H](O)[C@@H](C)[C@H](OC(C)=O)[C@@H]1C` [RIFAMPIN], the MIC in [1] is 3.13 mg/L (≈ 3.8 µM); in assay [2], over 200 mg/L; in assay [3], over 200 mg/L; in assay [4], over 200 mg/L; in assay [5], 0.377 µM (≈ 0.31 µg/mL); in assay [6], over 200 mg/L. Moreover, the MIC in assay [7] is over 200 mg/L; in [8], over 200 mg/L; in assay [9] it was 100 mg/L (≈ 122 µM); in assay [10], over 200 mg/L; in assay [11], 6.25 mg/L (≈ 7.59 µM); in assay [12], over 200 mg/L. The MIC in assay [13] was over 200 mg/L; in [14], 3.13 mg/L (≈ 3.8 µM); in [15], 100 mg/L (≈ 122 µM); in [16], over 200 mg/L; in assay [17], 3.13 mg/L (≈ 3.8 µM); in assay [18], over 200 mg/L. Moreover, the MIC in [19] was over 200 mg/L; in [20], over 12.2 µM; in [21] it was 6.25 mg/L (≈ 7.59 µM); in [22] it was over 200 mg/L; in [23], over 12.2 µM; in [24] it was over 200 mg/L. Moreover, the MIC in assay [25] and in assay [26] was over 200 mg/L each time.

For the compound `CN[C@@H]1[C@H](O[C@H]2[C@H](O[C@H]3[C@H](O)[C@@H](O)[C@H](N=C(N)N)[C@@H](O)[C@@H]3N=C(N)N)O[C@@H](C)[C@]2(O)C=O)O[C@@H](CO)[C@H](O)[C@H]1O` [STREPTOMYCIN], the MIC in assay [1] worked out at 3.13 mg/L (≈ 5.38 µM); in assay [2] it was 200 mg/L (≈ 344 µM); in [3] it was 1.56 mg/L (≈ 2.68 µM); in assay [4], 0.78 mg/L (≈ 1.34 µM); in [6], 0.39 mg/L (≈ 0.671 µM); in [27], 8 mg/L (≈ 13.8 µM). The MIC in [7] was 200 mg/L (≈ 344 µM); in assay [8], 0.78 mg/L (≈ 1.34 µM); in assay [9], 0.78 mg/L (≈ 1.34 µM); in [28], 32 mg/L (≈ 55 µM); in [10] it was 200 mg/L (≈ 344 µM); in assay [11], under 0.09 mg/L. The MIC is 3.13 mg/L (≈ 5.38 µM) in assay [12]; over 200 mg/L in assay [13]; over 200 mg/L in assay [14]; 50 mg/L (≈ 86 µM) in assay [15]; over 64 mg/L in [29]; 16 mg/L (≈ 27.5 µM) in [30]. The MIC in assay [16] was found to be 25 mg/L (≈ 43 µM); in [17], 3.13 mg/L (≈ 5.38 µM); in assay [18], 50 mg/L (≈ 86 µM); in assay [19] it was 100 mg/L (≈ 172 µM); in assay [21], 0.78 mg/L (≈ 1.34 µM); in [22], 25 mg/L (≈ 43 µM). The MIC in assay [24] was 50 mg/L (≈ 86 µM); in [25], 0.78 mg/L (≈ 1.34 µM); in assay [31] it was over 64 mg/L; in [26] it was over 200 mg/L; in assay [32] it was over 16 mg/L; in assay [33], over 64 mg/L.

On to `CC(=O)N1/C(=C/c2ccc(-c3ccc(C)cc3)cc2)C(=O)c2ccccc21`, for which the minimum inhibitory concentration (MIC) in [5], in assay [20] and in assay [23] was 17.7 µM (≈ 6.26 µg/mL) in each case.

`CC(=O)N1/C(=C/c2ccc(Br)cc2)C(=O)c2ccccc21`: the MIC came out at 15.2 µM (≈ 5.2 µg/mL) in [5], 9.15 µM (≈ 3.13 µg/mL) in [20] and 15.2 µM (≈ 5.2 µg/mL) in [23].

On to `Cc1ccc(NC(=O)c2c(Nc3ccc(Cl)cc3)nn3c(O)cc(C)nc23)cc1`, for which the MIC is 6.25 mg/L (≈ 15.3 µM) in [34] and over 100 mg/L in [35].

Turning to `NC(=O)c1cnccn1` [PYRAZINAMIDE], the MIC in [1], in assay [2], in [3], in assay [4], in assay [6] and in assay [7] was over 200 mg/L each time. The MIC in [8], in assay [9], in assay [10], in [11], in assay [12] and in assay [13] was over 200 mg/L throughout. For the same compound, the minimum inhibitory concentration (MIC) in assay [14], in [15], in assay [16], in assay [17], in [18] and in assay [19] was over 200 mg/L each time. In addition, the MIC in assay [21], in assay [22], in assay [24], in [25] and in [26] was over 200 mg/L in each case.

For `Cc1cc(O)n2nc(Nc3ccc(Cl)c(Cl)c3)c(C(N)=O)c2n1`, the MIC turned out to be 12.5 mg/L (≈ 35.5 µM) in assay [34] and 50 mg/L (≈ 142 µM) in assay [35].

The MIC is the smallest concentration in the dilution series that meets the test's criterion for growth inhibition.

Values taken from ChEMBL document CHEMBL5244273, “Tuberculosis: An Overview of the Immunogenic Response, Disease Progression, and Medicinal Chemistry Efforts in the Last Decade toward the Development of Potential Drugs for Extensively Drug-Resistant Tuberculosis Strains” (J Med Chem, 2021).
